How the values were obtained:
Wild-type AB zebrafish = test: Determination of maximum test concentration (MTC) in zebrafish blue light eye damage model; format: in vivo; settings: 28° C.; for Death count / Development status (phenotype) / Mortality: aqueous, n = 30
Description: Wild-type AB zebrafish at 1 day post-fertilization (1 dpf) were randomly selected and irradiated with blue light after membrane rupture to establish the zebrafish blue light eye damage model. Model zebrafish with desirable development status were selected at 3 dpf and randomly distributed in 6-well plates, with 30 zebrafish in each well (experimental group) were treated. Different concentrations of guaijaverin (concentrations shown in Table 1) were administered aqueously, and a normal control group and a model group were set up, where a volume of each well was 3 mL. After treatment at 28° C. for 1 d, the MTC of guaijaverin on model zebrafish was determined.

[1] = system: ocular apoptotic cells of the zebrafish; test: Anti-blue light eye protection efficacy, AO staining of ocular apoptotic cells in zebrafish blue light eye damage model; format: in vivo; settings: for Fluorescence intensity of ocular apoptotic cells (pixel, mean ± SE): aqueous, 28° C., 1 d, n = 10, model group 45833 ± 4825, normal control 12203 ± 1124
Description: Wild-type AB zebrafish at 1 dpf were randomly selected and irradiated with blue light after membrane rupture to establish the zebrafish blue light eye damage model. Model zebrafish with desirable development status were selected at 3 dpf and randomly distributed in 6-well plates, with 30 zebrafish in each well (experimental group) were treated. Different concentrations of guaijaverin (see Table 2 for concentrations) were administered aqueously, and lutein at a concentration of 62.5 μg/mL were used as a positive control, while a normal control group and a model group were also set up, with a volume of 3 mL per well. After 1 d of treatment at 28° C., the zebrafish in each experimental group were stained with AO in the dark for 30 min and washed 3 times with standard dilution water. 10 zebrafish were randomly selected from each experimental group and photographed under a fluorescence microscope. The data were analyzed and collected using Image J software. The fluorescence intensity of ocular apoptotic cells of the zebrafish was statistically analyzed. The anti-blue light eye protection efficacy of guaijaverin was evaluated based on the statistical analysis results of the above indicators. The statistical result was expressed as mean±SE.

[2] = system: mouse retinal apoptotic cells; test: Mouse retinal optical damage model, TUNEL staining of retinal apoptotic cells; format: in vivo, BALB/c mice; settings: for retinal cell apoptosis caused by light (TUNEL): gavage once a day 10 days, vs model group, FIG. 6
Description: A self-made light box with a length of 108 cm, a width of 50 cm, and a height of 72 cm was used, and the light intensity was measured by a light meter to be 8,500-10,000 Lux. After eye examination, 60 mice with normal eyeballs were selected and randomly divided into a control group, a model group, a lutein group (100 mg/kg), a guaijaverin low-dose group (50 mg/kg), and a guaijaverin high-dose group (100 mg/kg), with 12 mice in each group. Lutein and guaijaverin were suspended in 5% sodium carboxymethylcellulose (CMC-Na) solution and administered by gavage once a day. The mice in the control and model groups were administered by gavage with an equal volume of 5% CMC-Na for 10 consecutive days. 10 days later, the mice in the model group, lutein group, guaijaverin low-dose group, and guaijaverin high-dose group were kept in the dark for 36 h, atropine eye gel was applied to both eyes of the mice to induce pupil dilation, and the mice were placed in the self-made lighting device of 8,000-10,000 Lux (the control group was raised in a normal environment) and given continuous light for 24 h. After the light exposure, the mice in each group had their eyeballs removed to draw blood and eyeball tissue collected for subsequent experimental tests.
Eyeball tissues of 6 mice were collected from each group for Hematoxylin-eosin staining (H&E) and TUNEL fluorescence staining of apoptotic cells, and the pathological changes of mouse eyeball tissues were observed using an optical microscope (completed by Wuhan Servicebio Biotechnology Co., Ltd.).
a) Dewaxing the paraffin sections to water: the sections were sequentially placed into environmental-friendly dewaxing solution I for 10 min, environmental-friendly dewaxing solution II for 10 min, environmental-friendly dewaxing solution III for 10 min, anhydrous ethanol I for 5 min, anhydrous ethanol II for 5 min, anhydrous ethanol III for 5 min and washed with distilled water.
b) Proteinase K repair: after the sections were slightly dried, a tissue pen was used to draw a circle around the tissue (to prevent the liquid from flowing away), a proteinase K working solution was added in the circle to cover the tissue, and incubated in a 37° C. incubator for 20 min. The slides were placed in PBS (PH=7.4) and washed 3 times on a decolorizing shaker, each time for 5 min. (Preparation method of proteinase K working solution, stock solution:PBS=1:9). […]
g) Sealing: the slides were placed in PBS (PH7.4) and washed on a decolorizing shaker for 3 times, 5 min each time. The sections were slightly spin-dried and mounted with anti-fluorescence fading mounting medium. […]

**Q.** What does the source list for O=c1c(O[C@@H]2OC[C@H](O)[C@H](O)[C@H]2O)c(-c2ccc(O)c(O)c2)oc2cc(O)cc(O)c12 [Guaijaverin, guaijaverin]?
**A.** Death count (Wild-type AB zebrafish; 125 μg/mL, 1 d): 0 per fish; Development status (phenotype) (Wild-type AB zebrafish; 125 μg/mL, 1 d): Status similar to that of model; Mortality (Wild-type AB zebrafish; 125 μg/mL, 1 d): 0%; Death count (Wild-type AB zebrafish; 150 μg/mL, 1 d): 0 per fish; Development status (phenotype) (Wild-type AB zebrafish; 150 μg/mL, 1 d): Status similar to that of model; Mortality (Wild-type AB zebrafish; 150 μg/mL, 1 d): 0%; Dissolution (Wild-type AB zebrafish; 200 μg/mL in fish water): Precipitated; Death count (Wild-type AB zebrafish; 200 μg/mL, 1 d): 0 per fish; Development status (phenotype) (Wild-type AB zebrafish; 200 μg/mL, 1 d): Status similar to that of model; Mortality (Wild-type AB zebrafish; 200 μg/mL, 1 d): 0%; Dissolution (Wild-type AB zebrafish; 250 μg/mL in fish water): Precipitated; Death count (Wild-type AB zebrafish; 250 μg/mL, 1 d): 0 per fish; Development status (phenotype) (Wild-type AB zebrafish; 250 μg/mL, 1 d): Status similar to that of model; Mortality (Wild-type AB zebrafish; 250 μg/mL, 1 d): 0%; Dissolution (Wild-type AB zebrafish; 500 μg/mL in fish water): Precipitated; Death count (Wild-type AB zebrafish; 500 μg/mL, 1 d): 0 per fish; Development status (phenotype) (Wild-type AB zebrafish; 500 μg/mL, 1 d): Status similar to that of model; Mortality (Wild-type AB zebrafish; 500 μg/mL, 1 d): 0%; Dissolution (Wild-type AB zebrafish; 1000 μg/mL in fish water): Precipitated; Death count (Wild-type AB zebrafish; 1000 μg/mL, 1 d): 0 per fish; Development status (phenotype) (Wild-type AB zebrafish; 1000 μg/mL, 1 d): Status similar to that of model; Mortality (Wild-type AB zebrafish; 1000 μg/mL, 1 d): 0%; Dissolution (Wild-type AB zebrafish; 2000 μg/mL in fish water): Precipitated; Death count (Wild-type AB zebrafish; 2000 μg/mL, 1 d): 0 per fish; Development status (phenotype) (Wild-type AB zebrafish; 2000 μg/mL, 1 d): Status similar to that of model; Mortality (Wild-type AB zebrafish; 2000 μg/mL, 1 d): 0%; MTC (maximum test concentration) (Wild-type AB zebrafish; model zebrafish, 1 d): 150 µg/mL; Fluorescence intensity of ocular apoptotic cells (pixel, mean ± SE) ([1]; 62.5 μg/mL): 31471 ± 2353 pixel; eye protection effect against blue optical damage compared with lutein ([1]; 125 μg/mL vs lutein 62.5 μg/mL): same significant eye protection effect as lutein; Fluorescence intensity of ocular apoptotic cells (pixel, mean ± SE) ([1]; 125 μg/mL): 24765 ± 2077 pixel; eye protection effect against blue optical damage compared with lutein ([1]; 150 μg/mL vs lutein 62.5 μg/mL): more significant eye protection effect than lutein; Fluorescence intensity of ocular apoptotic cells (pixel, mean ± SE) ([1]; 150 μg/mL): 18149 ± 1688 pixel; protective effect on retinal cell apoptosis compared with lutein (TUNEL) ([2]; high-dose 100 mg/kg vs lutein 100 mg/kg): better protective effect than lutein; retinal cell apoptosis caused by light (TUNEL) ([2]; high-dose 100 mg/kg): effectively improve retinal cell apoptosis caused by light; protective effect on retinal cell apoptosis compared with lutein (TUNEL) ([2]; low-dose 50 mg/kg vs lutein 100 mg/kg): comparable to that of the positive control lutein; retinal cell apoptosis caused by light (TUNEL) ([2]; low-dose 50 mg/kg): effectively improve retinal cell apoptosis caused by light
